Laboratory results published in ChEMBL document CHEMBL5715937, “In vitro activity of Bcr-Abl inhibitors AMN107 and BMS-354825 against clinically relevant imatinib-resistant Abl kinase domain mutants” (Cancer Res, 2005).
The source made the active and inactive calls. The rule behind the calls is not given here.

Columns and labels:
BaF3 [1] = assay: Induction of apoptosis in mouse BaF3 cells expressing Bcr-Abl H396P mutant assessed as increase in apoptotic cells at 1500 nM incubated for 72 hrs by Annexin V-phycoerythrin and 7-amino-actinomycin D staining based PCA instrument analysis relative to control; type: functional
BaF3 [2] = assay: Induction of apoptosis in mouse BaF3 cells expressing Bcr-Abl H396R mutant at 30 to 300 nM incubated for 72 hrs by Annexin V-phycoerythrin and 7-amino-actinomycin D staining based PCA instrument analysis; type: functional, cell-based; settings: dose 30-300 nM
BaF3 [3] = assay: Induction of apoptosis in mouse BaF3 cells expressing Bcr-Abl M351T mutant assessed as increase in apoptotic cells at 1500 nM incubated for 72 hrs by Annexin V-phycoerythrin and 7-amino-actinomycin D staining based PCA instrument analysis relative to control; type: functional
[4] = Cytotoxicity against mouse BaF3 cells assessed as reduction in cell proliferation incubated for 72 hrs by […] CellTiter96 viability analysis; type: toxicity
BaF3 [5] = assay: Induction of apoptosis in mouse BaF3 cells expressing Bcr-Abl T315l mutant assessed as increase in apoptotic cells at 1500 nM incubated for 72 hrs by Annexin V-phycoerythrin and 7-amino-actinomycin D staining based PCA instrument analysis relative to control; type: functional
cells [6] = settings: Mus musculus, BaF3, 3 h
BaF3 [7] = assay: Induction of apoptosis in mouse BaF3 cells expressing Bcr-Abl Y253H mutant assessed as increase in apoptotic cells at 1500 nM incubated for 72 hrs by Annexin V-phycoerythrin and 7-amino-actinomycin D staining based PCA instrument analysis relative to control; type: functional
[8] = Inhibition of BCR-ABL V379l mutant (unknown origin) expressed in mouse BaF3 cells assessed as inhibition of tyrosine phosphorylation incubated for 3 hrs by immunoblotting analysis; type: cell-based; settings: BaF3, 3 h
BaF3 [9] = assay: Induction of apoptosis in mouse BaF3 cells expressing Bcr-Abl V379l mutant assessed as increase in apoptotic cells at 1500 nM incubated for 72 hrs by Annexin V-phycoerythrin and 7-amino-actinomycin D staining based PCA instrument analysis relative to control; type: functional
BaF3 [10] = assay: Induction of apoptosis in mouse BaF3 cells expressing Bcr-Abl G250E mutant assessed as increase in apoptotic cells at 1500 nM incubated for 72 hrs by Annexin V-phycoerythrin and 7-amino-actinomycin D staining based PCA instrument analysis relative to control; type: functional
[11] = Inhibition of BCR-ABL F317L mutant (unknown origin) expressed in mouse BaF3 cells assessed as inhibition of cell growth incubated for 72 hrs by […] CellTiter96 viability analysis
BaF3 [12] = assay: Induction of apoptosis in mouse BaF3 cells expressing Bcr-Abl F359V mutant at 30 to 300 nM incubated for 72 hrs by Annexin V-phycoerythrin and 7-amino-actinomycin D staining based PCA instrument analysis; type: functional, cell-based; settings: dose 30-300 nM
[13] = Inhibition of BCR-ABL Y253H mutant (unknown origin) expressed in mouse BaF3 cells assessed as inhibition of cell growth incubated for 72 hrs by […] CellTiter96 viability analysis
BaF3 [14] = assay: Induction of apoptosis in mouse BaF3 cells expressing Bcr-Abl Y253F mutant at 30 to 300 nM incubated for 72 hrs by Annexin V-phycoerythrin and 7-amino-actinomycin D staining based PCA instrument analysis; type: functional, cell-based; settings: dose 30-300 nM
BaF3 [15] = assay: Induction of apoptosis in mouse BaF3 cells expressing Bcr-Abl F359V mutant assessed as increase in apoptotic cells at 1500 nM incubated for 72 hrs by Annexin V-phycoerythrin and 7-amino-actinomycin D staining based PCA instrument analysis relative to control; type: functional
BaF3 [16] = assay: Induction of apoptosis in mouse BaF3 cells expressing Bcr-Abl M244V mutant assessed as increase in apoptotic cells at 1500 nM incubated for 72 hrs by Annexin V-phycoerythrin and 7-amino-actinomycin D staining based PCA instrument analysis relative to control; type: functional
[17] = Inhibition of BCR-ABL F359V mutant (unknown origin) expressed in mouse BaF3 cells assessed as inhibition of cell growth incubated for 72 hrs by […] CellTiter96 viability analysis
BaF3 [18] = assay: Induction of apoptosis in mouse BaF3 cells expressing Bcr-Abl G250E mutant at 30 to 300 nM incubated for 72 hrs by Annexin V-phycoerythrin and 7-amino-actinomycin D staining based PCA instrument analysis; type: functional, cell-based; settings: dose 30-300 nM
BaF3 [19] = assay: Induction of apoptosis in mouse BaF3 cells at 30 to 1500 nM incubated for 72 hrs by Annexin V-phycoerythrin and 7-amino-actinomycin D staining based PCA instrument analysis relative to control; type: toxicity, cell-based; settings: baf3, 72 h, 1.5 µM, dose 30-1500 nM
BaF3 [20] = assay: Induction of apoptosis in mouse BaF3 cells expressing Bcr-Abl E255V mutant at 30 to 300 nM incubated for 72 hrs by Annexin V-phycoerythrin and 7-amino-actinomycin D staining based PCA instrument analysis; type: functional, cell-based; settings: dose 30-300 nM
BaF3 [21] = assay: Induction of apoptosis in mouse BaF3 cells expressing Bcr-Abl M244V mutant at 30 to 300 nM incubated for 72 hrs by Annexin V-phycoerythrin and 7-amino-actinomycin D staining based PCA instrument analysis; type: functional, cell-based; settings: dose 30-300 nM
cells [22] = settings: Mus musculus, BaF3, 3 h; remark: listed apart in the source
BaF3 [23] = assay: Induction of apoptosis in mouse BaF3 cells expressing Bcr-Abl F311L mutant at 30 to 300 nM incubated for 72 hrs by Annexin V-phycoerythrin and 7-amino-actinomycin D staining based PCA instrument analysis; type: functional, cell-based; settings: dose 30-300 nM
cells [24] = settings: Mus musculus, BaF3, 3 h; remark: listed apart in the source
BaF3 [25] = assay: Induction of apoptosis in mouse BaF3 cells expressing Bcr-Abl M351T mutant at 30 to 300 nM incubated for 72 hrs by Annexin V-phycoerythrin and 7-amino-actinomycin D staining based PCA instrument analysis; type: functional, cell-based; settings: dose 30-300 nM
BaF3 [26] = assay: Induction of apoptosis in mouse BaF3 cells expressing Bcr-Abl L387M mutant assessed as increase in apoptotic cells at 1500 nM incubated for 72 hrs by Annexin V-phycoerythrin and 7-amino-actinomycin D staining based PCA instrument analysis relative to control; type: functional
[27] = Inhibition of BCR-ABL E255K mutant (unknown origin) expressed in mouse BaF3 cells assessed as inhibition of cell growth incubated for 72 hrs by […] CellTiter96 viability analysis
BaF3 [28] = assay: Induction of apoptosis in mouse BaF3 cells expressing Bcr-Abl H396R mutant assessed as increase in apoptotic cells at 1500 nM incubated for 72 hrs by Annexin V-phycoerythrin and 7-amino-actinomycin D staining based PCA instrument analysis relative to control; type: functional
[29] = Inhibition of BCR-ABL L387M mutant (unknown origin) expressed in mouse BaF3 cells assessed as inhibition of cell growth incubated for 72 hrs by […] CellTiter96 viability analysis; settings: BaF3, time 72 hrs, condition chronic myelogenous leukemia
[30] = Inhibition of BCR-ABL H396P mutant (unknown origin) expressed in mouse BaF3 cells assessed as inhibition of tyrosine phosphorylation incubated for 3 hrs by immunoblotting analysis; type: cell-based; settings: BaF3, 3 h
[31] = BaF3, time 72 hrs, condition chronic myelogenous leukemia

For `Cc1cn(-c2cc(NC(=O)c3ccc(C)c(Nc4nccc(-c5cccnc5)n4)c3)cc(C(F)(F)F)c2)cn1` [NILOTINIB], the Activity (BaF3 [1]) was greater than 90%, the Activity (BaF3 [2]) was “Active” and the Activity (BaF3 [3]) was greater than 90%. It also gave an IC50 at 72 h [4] greater than 2000 nM, an Activity (BaF3 [5]) of 3% and an IC50 (cells [6]) of 43 nM. For the same compound, the Activity (BaF3 [7]) was 65%, the IC50 [8] was 15 nM and the Activity (BaF3 [9]) was greater than 90%. For the same compound, the Activity (BaF3 [10]) was greater than 90%, the IC50 ([11]; BaF3, 72 h) was 50 nM and the IC90 [11, 31] was 116 nM. The Activity (BaF3 [12]) was “Active”, the IC50 ([13]; BaF3, 72 h) was 450 nM and the IC90 [13, 31] was 1020 nM. For the same compound, the Activity (BaF3 [14]) was “Active”, the Activity (BaF3 [15]) was greater than 90% and the Activity (BaF3 [16]) was greater than 90%. The IC50 ([17]; BaF3, 72 h) was 175 nM, the IC90 [17, 31] was 385 nM and the Activity (BaF3 [18]) was “Active”. For the same compound, the Activity (BaF3 [19]) was “Non-Toxic”, the Activity (BaF3 [20]) was “Active” and the Activity (BaF3 [21]) was “Active”. The IC50 (cells [22]) was 8 nM, the Activity (BaF3 [23]) was “Active” and the IC50 (cells [24]) was greater than 5000 nM. The Activity (BaF3 [25]) was “Active”, the Activity (BaF3 [26]) was greater than 90% and the IC50 ([27]; BaF3, 72 h) was 200 nM. For the same compound, the IC90 [27, 31] was 415 nM, the Activity (BaF3 [28]) was greater than 90% and the IC90 [29] was 115 nM. The IC50 [30] was 70 nM.
